Reference: paper PMC7673538 (PLoS Biology, 2020)
Where “and” joins values, the source holds several entries; their conditions need not be identical. Equal entries are not always repeated. Where two headings read alike, the source gives them in different places.

Assays:
CV-A24v = test: microbe, parasite or virus in culture; type: cell-based, coxsackievirus A24v; conditions: for EC50: Coxsackievirus
HRV-A2 = test: microbe, parasite or virus in culture; type: cell-based, human rhinovirus; conditions: for EC50: Human rhinovirus sp.
[1] = tested on: representative EVs and RVs; type: cell-based
in vitro = conditions: human
CV-A24 (strain Joseph) = type: cell-based, coxsackievirus A24; conditions: compound concentration 1 µM
HRV-B14 [2] = test: microbe, parasite or virus in culture; type: cell-based, human rhinovirus
HRV-B14 [3] = type: cell-based, human rhinovirus; conditions: compound concentration 0.1 µM
CV-B3 = test: microbe, parasite or virus in culture; type: cell-based, coxsackievirus B3; conditions: for EC50: Enterovirus B

## COc1ccc(N(Cc2ccc(F)cc2)C(=O)c2ccco2)cc1 [Compound 1, N-(4-fluorobenzyl)-N-(4-methoxyphenyl)furan-2-carboxamide]
CV-A24v; Concentration 0.1235 µM
  Figure 7 dose-response raw data, CV-A24v (triplicate values): 8.529 and 8.161 and 15.8928
CV-A24v; Concentration 0.3704 µM
  Figure 7 dose-response raw data, CV-A24v (triplicate values): 10.8611 and 15.1565 and 15.6474
CV-A24v; Concentration 1.1111 µM
  Figure 7 dose-response raw data, CV-A24v (triplicate values): 10.0021 and 16.3837 and 13.9292
CV-A24v; Concentration 11.1111 µM
  Figure 7 dose-response raw data, CV-A24v (triplicate values): 8.182 and 7.259 and 9.382
CV-A24v; HeLa R19, read-out: EC50 CV-A24v strain 110386
  EC50: > 30 µM
CV-A24v; HeLa R19, read-out: EC50 CV-A24v strain 110389
  EC50: > 30 µM
CV-A24v; HeLa R19, read-out: EC50 CV-A24v strain 110390
  EC50: > 30 µM
CV-A24v; HeLa R19, read-out: EC50 CV-A24v strain 110392
  EC50: > 30 µM
HRV-A2; Concentration 0.0412 µM
  Figure 7 dose-response raw data, HRV-A2 (triplicate values): 7.118 and 8.563 and 11.1417
HRV-A2; Concentration 0.1235 µM
  Figure 7 dose-response raw data, HRV-A2 (triplicate values): 6.499 and 7.221 and 5.983
HRV-A2; Concentration 0.3704 µM
  Figure 7 dose-response raw data, HRV-A2 (triplicate values): 11.7607 and 8.975 and 8.666
HRV-A2; Concentration 3.3333 µM
  Figure 7 dose-response raw data, HRV-A2 (triplicate values): 6.087 and 4.436 and 5.983
HRV-A2; Concentration 33.3333 µM
  Figure 7 dose-response raw data, HRV-A2 (triplicate values): 4.849 and 8.666 and 8.769
HRV-A2; Concentration 100 µM
  Figure 7 dose-response raw data, HRV-A2 (triplicate values): 4.849 and 8.666 and 8.769
HRV-A2; HRVA2, HeLa R19, read-out: EC50 HRV-A2
  EC50: > 30 µM
HRV-A2; HRVA2, HeLa R19, read-out: EC50 HRV-A2 Average
  EC50: > 30 µM
HRV-A2; HRVA2, HeLa R19, read-out: EC50 HRV-A2 Experiement 3
  EC50: > 30 µM
HRV-A2; HRVA2, HeLa R19, read-out: EC50 HRV-A2 Experiment 1
  EC50: > 30 µM
HRV-A2; HRVA2, HeLa R19, read-out: EC50 HRV-A2 Experiment 2
  EC50: > 30 µM
[1]
  inhibition of contemporary/clinical isolates of EV-A71, CV-A24v and EV-D68 (in words): only inhibited the contemporary strains of EV-D68
In vitro; CC50 Hap1 Average
  CC50: 45.6 µM
In vitro; Exp 1 CC50 Hap1
  CC50: 45.1 µM
In vitro; Exp 2 CC50 Hap1
  CC50: 46.1 µM
CV-A24 (strain Joseph)
  virus titer, TCID50/ml (Figure 2A): 100000 TCID50/ml and 169824 TCID50/ml and 162341 TCID50/ml
HRV-B14 [2]
  inhibition of HRV-B14 replication (in words): antiviral activity
HRV-B14 [2]; Concentration 0.0046 µM
  Figure 7 dose-response raw data, HRV_B14 (triplicate values): 15.2266 and 14.5606
HRV-B14 [2]; Concentration 0.0137 µM
  Figure 7 dose-response raw data, HRV_B14 (triplicate values): 15.2266 and 14.5606
HRV-B14 [2]; Concentration 0.0412 µM
  Figure 7 dose-response raw data, HRV_B14 (triplicate values): 15.2266 and 14.5606 and 20.943
HRV-B14 [2]; Concentration 0.3704 µM
  Figure 7 dose-response raw data, HRV_B14 (triplicate values): 23.8668 and 30.9898 and 27.193
HRV-B14 [2]; Concentration 1.1111 µM
  Figure 7 dose-response raw data, HRV_B14 (triplicate values): 29.6577 and 30.8788 and 30.9898
HRV-B14 [2]; Concentration 3.3333 µM
  Figure 7 dose-response raw data, HRV_B14 (triplicate values): 15.2266 and 14.5606
HRV-B14 [2]; Concentration 11.1111 µM
  Figure 7 dose-response raw data, HRV_B14 (triplicate values): 71.9426 and 62.9417 and 74.4773
HRV-B14 [2]; Concentration 33.3333 µM
  Figure 7 dose-response raw data, HRV_B14 (triplicate values): 100.034 and 89.1582 and 86.605
HRV-B14 [2]; Concentration 100 µM
  Figure 7 dose-response raw data, HRV_B14 (triplicate values): 104.147 and 89.1582 and 86.605
HRV-B14 [2]; Human rhinovirus sp., HRVB14, HeLa R19, read-out: EC50 Exp1
  EC50: 10.8 µM
HRV-B14 [2]; Human rhinovirus sp., HRVB14, HeLa R19, read-out: EC50 Exp2
  EC50: 13.9 µM
HRV-B14 [2]; Human rhinovirus sp., HRVB14, HeLa R19, read-out: EC50 HRV-B14
  EC50: 10.8 ± 1.27 µM
HRV-B14 [2]; Human rhinovirus sp., HRVB14, HeLa R19, read-out: EC50 HRV-B14 Experiement 3
  EC50: 11.1 µM
HRV-B14 [2]; Human rhinovirus sp., HRVB14, HeLa R19, read-out: EC50 HRV-B14 Experiment 1
  EC50: 12.2 µM
HRV-B14 [2]; Human rhinovirus sp., HRVB14, HeLa R19, read-out: EC50 HRV-B14 Experiment 2
  EC50: 9.16 µM
HRV-B14 [2]; read-out: EC50 HRV-B14
  EC50: 12.4 ± 1.51 µM
HeLa R19 cells
  cytotoxic effect (in words): did not show any adverse cytotoxic effect
HRV-B14 [3]
  virus titer, TCID50/ml (Figure 2A): 10000000 TCID50/ml
CV-B3
  antiviral activity against CV-B3 (in words): inhibited
CV-B3; Concentration 0.001 µM
  Figure 7 dose-response raw data, CV-B3 (triplicate values): 8.4087 and 12.9113 and 13.3731
CV-B3; Concentration 0.0046 µM
  Figure 7 dose-response raw data, CV-B3 (triplicate values): 8.524 and 14.1813 and 13.8349
CV-B3; Concentration 0.0137 µM
  Figure 7 dose-response raw data, CV-B3 (triplicate values): 8.178 and 10.6023 and 11.4104
CV-B3; Concentration 0.0412 µM
  Figure 7 dose-response raw data, CV-B3 (triplicate values): 8.755 and 10.1405 and 13.8349
CV-B3; Concentration 0.1235 µM
  Figure 7 dose-response raw data, CV-B3 (triplicate values): 8.6396 and 9.794 and 10.7177
CV-B3; Concentration 0.3704 µM
  Figure 7 dose-response raw data, CV-B3 (triplicate values): 31.7298 and 16.0285 and 26.5345
CV-B3; Concentration 1.1111 µM
  Figure 7 dose-response raw data, CV-B3 (triplicate values): 69.1798 and 64.4511 and 60.4699
CV-B3; Concentration 3.3333 µM
  Figure 7 dose-response raw data, CV-B3 (triplicate values): 108.671 and 85.22 and 102.264
CV-B3; Concentration 10 µM
  Figure 7 dose-response raw data, CV-B3 (triplicate values): 111.619 and 82.0162 and 97.2661
CV-B3; CVB3, HeLa R19
  EC50: 1.92 ± 0.04 µM
CV-B3; CVB3, HeLa R19, read-out: CV-B3 EC50 Average
  EC50: 1.92 µM
CV-B3; CVB3, HeLa R19, read-out: CV-B3 Exp 1 EC50
  EC50: 1.87 µM
CV-B3; CVB3, HeLa R19, read-out: CV-B3 Exp2 EC50
  EC50: 1.96 µM
CV-B3; CVB3, HeLa R19, read-out: EC50 CV-B3
  EC50: 1.71 ± 0.07 µM
CV-B3; CVB3, HeLa R19, read-out: EC50 CVB3 Experiement 3
  EC50: 1.78 µM
CV-B3; CVB3, HeLa R19, read-out: EC50 CVB3 Experiment 1
  EC50: 1.72 µM
CV-B3; CVB3, HeLa R19, read-out: EC50 CVB3 Experiment 2
  EC50: 1.62 µM
CV-B3; CVB3, HeLa R19, read-out: EC50 HelaR19 Average
  EC50: 1.76 µM
CV-B3; CVB3, HeLa R19, read-out: Exp 1 EC50 HelaR19
  EC50: 1.65 µM
CV-B3; CVB3, HeLa R19, read-out: Exp 2 EC50 HelaR19
  EC50: 1.87 µM
